Reference: ChEMBL document CHEMBL5360614, “Quinoline Thiourea-Based Zinc Ionophores with Antibacterial Activity” (J Med Chem, 2023)
≈ marks a conversion by molar mass, not a printed value. Each block holds one molecule with its values, some of them ahead of it.

Columns and labels:
Format in all cases: functional
Staphylococcus aureus [1] = assay: Potency index, ratio of compound MIC to compound MIC in presence of 1 uM 1-(2-(1H-benzo[d]imidazol-1-yl)quinolin-8-yl)-3-(3,5-bis(trifluoromethyl)phenyl)thiourea and 200 uM ZnCl2 for antibacterial activity against gentamicin-and methicillin-resistant Staphylococcus aureus ATCC 33592
Staphylococcus aureus [2] = assay: (§1) Antibacterial activity against gentamicin-and methicillin-resistant Staphylococcus aureus ATCC 33592 assessed as reduction in bacterial growth incubated for 14 to 16 hrs in presence of 200 uM ZnCl2 by microbroth dilution method; settings: time 14-16 hrs
Staphylococcus aureus [3] = assay: as §1, with “1” for “200”, “1-(2-(1H-benzo[d]imidazol-1-yl)quinolin-8-yl)-3-(3,5-bis(trifluoromethyl)phenyl)thiourea” for “ZnCl2”; settings: time 14-16 hrs
Staphylococcus aureus [4] = assay: Antibacterial activity against gentamicin-and methicillin-resistant Staphylococcus aureus ATCC 33592 assessed as reduction in bacterial growth incubated for 14 to 16 hrs by microbroth dilution method; settings: time 14-16 hrs
Staphylococcus aureus [5] = assay: as §1, with “of 1 uM 1-(2-(1H-benzo[d]imidazol-1-yl)quinolin-8-yl)-3-(3,5-bis(trifluoromethyl)phenyl)thiourea and” for “of”; settings: time 14-16 hrs
Staphylococcus aureus [6] = assay: as §1, with “1 uM 1-(2-(1H-benzo[d]imidazol-1-yl)quinolin-8-yl)-3-(3,5-bis(trifluoromethyl)phenyl)thiourea and 100” for “200”; settings: time 14-16 hrs
Staphylococcus aureus [7] = assay: Antibacterial activity against Staphylococcus aureus MTCC-96 assessed as reduction in bacterial growth incubated for 14 to 16 hrs by microbroth dilution method; settings: time 14-16 hrs
Escherichia coli = assay: Antibacterial activity against Escherichia coli MTCC 1687 assessed as reduction in bacterial growth incubated for 14 to 16 hrs by microbroth dilution method; settings: time 14-16 hrs

Molecule: NC[C@H]1O[C@H](O[C@H]2[C@H](O)[C@@H](O[C@H]3O[C@H](CO)[C@@H](O)[C@H](N)[C@H]3O)[C@H](N)C[C@@H]2N)[C@H](O)[C@@H](O)[C@@H]1O [KANAMYCIN]
Ratio (Staphylococcus aureus [1]): 499 | MIC (Staphylococcus aureus [2]): 155 µM | MIC (Staphylococcus aureus [3]): 155 µM | MIC (Staphylococcus aureus [4]): 155 µM (≈ 75.1 µg/mL) | MIC (Staphylococcus aureus [5]): 0.31 µM | MIC (Staphylococcus aureus [6]): 6.44 µM

MIC (Staphylococcus aureus [7]): 1870 µM
Molecule: CUPRIC CHLORIDE

Molecule: O=C(Nc1cc(C(F)(F)F)cc(C(F)(F)F)c1)Nc1cccc2cccnc12
MIC (Staphylococcus aureus [4]): > 50 µM | MIC (Escherichia coli): > 50 µM | MIC (Staphylococcus aureus [7]): > 50 µM

Molecule: FC(F)(F)c1ccc(NC(=S)Nc2cccc3cccnc23)cc1
MIC (Staphylococcus aureus [4]): 6.25 µM (≈ 2.17 µg/mL) | MIC (Escherichia coli): > 50 µM | MIC (Staphylococcus aureus [7]): 6.25 µM (≈ 2.17 µg/mL)
